Reference: patent US9096559B2, “4-carboxybenzylamino derivatives as histone deacetylase inhibitors” (Merck Sharp & Dohme Corp., priority 2007, dated 2015)

What was measured:
[1] = test system: human cervical cancer (HeLa) and colon carcinoma (HCT116) cells; test: ATP (Vialight) cell proliferation assay, 72 hr; format: cell-based; details: IP = inflection point, cell line not given, read-out: Prol-72 hr IP (inflection point)
Experimental: The novel compounds of the present invention were tested for their ability to inhibit proliferation of the human cervical cancer (HeLa) and colon carcinoma (HCT116) cells.
In this assay, also referred to as the Vialight Assay, cellular ATP levels are measured as a means of quantifying cellular proliferation. This assay makes use of a bioluminescent method from Cambrex (ViaLight PLUS, cat. #LT07-121). In the presence of ATP, luciferase converts luciferin to oxyluciferin and light. The amount of light produced (emission at 565 nm) is measured and correlates with a relative amount of proliferation. Human cervical cancer (HeLa) or colon carcinoma (HCT116) cells were incubated with vehicle or increasing concentrations of compound for 48, 72 or 96 hours. Cell proliferation was quantified by adding the cell lysis reagent (provided in the Vialight assay kit) directly to culture wells, followed by addition of the ATP-monitoring reagent (containing luciferase/luciferin). The amount of light produced is then measured (emission at 565 nm). The quantity of light produced, as measured by […], is directly proportional to the number of living cells in culture.

[2] = molecular target: histone deacetylase, subtype 1 (HDAC1) (Homo sapiens (Human), UniProt Q13547); test: HDAC1-Flag in vitro deacetylation assay; format: biochemical; details: IP = inflection point; read-out: HDAC1 IP (inflection point)
histone deacetylase, subtype 1 (HDAC1), sequence (Q13547 whole entry): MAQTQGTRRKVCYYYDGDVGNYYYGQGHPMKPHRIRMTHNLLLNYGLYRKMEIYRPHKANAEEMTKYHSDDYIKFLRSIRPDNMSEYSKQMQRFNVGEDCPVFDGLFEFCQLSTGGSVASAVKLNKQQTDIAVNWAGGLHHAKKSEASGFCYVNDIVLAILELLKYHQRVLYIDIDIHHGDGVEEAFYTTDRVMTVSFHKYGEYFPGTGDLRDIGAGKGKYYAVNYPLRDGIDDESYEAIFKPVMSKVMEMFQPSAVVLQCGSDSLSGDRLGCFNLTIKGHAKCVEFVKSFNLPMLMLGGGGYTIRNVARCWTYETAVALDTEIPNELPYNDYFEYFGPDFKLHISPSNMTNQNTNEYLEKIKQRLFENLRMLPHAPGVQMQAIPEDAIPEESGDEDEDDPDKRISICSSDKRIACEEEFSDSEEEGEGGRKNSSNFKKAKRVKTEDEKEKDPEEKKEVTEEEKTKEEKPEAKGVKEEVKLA
Experimental: Novel compounds were tested for their ability to inhibit histone deacetylase, subtype 1 (HDAC1) using an in vitro deacetylation assay. The enzyme source for this assay was an epitope-tagged human HDAC1 complex immuno-purified from stably expressing mammalian cells. The substrate consisted of a commercial product containing an acetylated lysine side chain (BIOMOL Research Laboratories, Inc., Plymouth Meeting, Pa.). Upon deacetylation of the substrate by incubation with the purified HDAC1 complex, a fluorophore is produced that is directly proportional to the level of deacetylation.

Nc1ccc(-c2ccccc2)cc1NC(=O)c1ccc(CNC(=O)OCc2cccnc2)cc1 [Example 1, Pyridin-3-ylmethyl[(4-{[(4-aminobiphenyl-3-yl)amino]carbonyl}phenyl)methyl]carbamate]
IC50 [1]: 380 nM

Nc1ccc(-c2ccsc2)cc1NC(=O)c1ccc(CNC(=O)OCc2cccnc2)cc1 [Example 4, pyridin-3-ylmethyl {[4-({[2-amino-5-(3-thienyl)phenyl]amino}carbonyl)phenyl]methyl}carbamate]
IC50 [2]: 5.8 nM
IC50 [1]: 370 nM

O=C(NCc1ccc(C(=O)Nc2cc(-c3cccnc3)ccc2O)cc1)OCc1cccnc1 [Example 6, pyridin-3-ylmethyl[(4-{[(2-hydroxy-5-pyridin-3-ylphenyl)amino]carbonyl}phenyl)methyl]carbamate]
IC50 [2]: 16 nM
IC50 [1]: 1000 nM

COC(=O)NCc1ccc(C(=O)Nc2cc(-c3ccccc3)ccc2N)cc1 [Example 9, methyl[(4-{[(4-aminobiphenyl-3-yl)amino]carbonyl}phenyl)methyl]carbamate]
IC50 [2]: 17 nM
IC50 [1]: 260 nM

CCOC(=O)NCc1ccc(C(=O)Nc2cc(-c3ccccc3)ccc2N)cc1 [Example 10, ethyl[(4-{[(4-aminobiphenyl-3-yl)amino]carbonyl}phenyl)methyl]carbamate]
IC50 [2]: 16 nM
IC50 [1]: 230 nM

CC(C)OC(=O)NCc1ccc(C(=O)Nc2cc(-c3ccccc3)ccc2N)cc1 [Example 11, 1-methylethyl[(4-{[(4-aminobiphenyl-3-yl)amino]carbonyl}phenyl)methyl]carbamate]
IC50 [1]: 130 nM

CCCOC(=O)NCc1ccc(C(=O)Nc2cc(-c3ccccc3)ccc2N)cc1 [Example 12, propyl[(4-{[(4-aminobiphenyl-3-yl)amino]carbonyl}phenyl)methyl]carbamate]
IC50 [2]: 29 nM
IC50 [1]: 360 nM

CC(C)COC(=O)NCc1ccc(C(=O)Nc2cc(-c3ccccc3)ccc2N)cc1 [Example 13, 2-methylpropyl[(4-{[(4-aminobiphenyl-3-yl)amino]carbonyl}phenyl)methyl]carbamate]
IC50 [2]: 45 nM
IC50 [1]: 390 nM

Nc1ccc(-c2ccccc2)cc1NC(=O)c1ccc(CNC(=O)Oc2ccccc2)cc1 [Example 14, phenyl[(4-{[(4-aminobiphenyl-3-yl)amino]carbonyl}phenyl)methyl]carbamate]
IC50 [2]: 320 nM
IC50 [1]: 1400 nM

Nc1ccc(-c2ccccc2)cc1NC(=O)c1ccc(CNC(=O)OCc2ccccc2)cc1 [Example 15, phenylmethyl[(4-{[(4-aminobiphenyl-3-yl)amino]carbonyl}phenyl)methyl]carbamate]
IC50 [1]: 820 nM

CCOC(=O)NCc1ccc(C(=O)Nc2cc(-c3cccs3)ccc2N)cc1 [Example 16, ethyl {[4-({[2-amino-5-(2-thienyl)phenyl]amino}carbonyl)phenyl]methyl}carbamate]
IC50 [2]: 12 nM
IC50 [1]: 130 nM

COC(=O)NCc1ccc(C(=O)Nc2cc(-c3cccs3)ccc2N)cc1 [Example 17, methyl {[4-({[2-amino-5-(2-thienyl)phenyl]amino}carbonyl)phenyl]methyl}carbamate]
IC50 [2]: 6 nM
IC50 [1]: 96 nM

CC(C)OC(=O)NCc1ccc(C(=O)Nc2cc(-c3cccs3)ccc2N)cc1 [Example 18, 1-methylethyl {[4-({[2-amino-5-(2-thienyl)phenyl]amino}carbonyl)phenyl]methyl}carbamate]
IC50 [2]: 19 nM
IC50 [1]: 120 nM

CCCOC(=O)NCc1ccc(C(=O)Nc2cc(-c3cccs3)ccc2N)cc1 [Example 19, propyl {[4-({[2-amino-5-(2-thienyl)phenyl]amino}carbonyl)phenyl]methyl}carbamate]
IC50 [2]: 19 nM
IC50 [1]: 110 nM

CC(C)COC(=O)NCc1ccc(C(=O)Nc2cc(-c3cccs3)ccc2N)cc1 [Example 20, 2-methylpropyl {[4-({[2-amino-5-(2-thienyl)phenyl]amino}carbonyl)phenyl]methyl}carbamate]
IC50 [2]: 31 nM
IC50 [1]: 300 nM

Nc1ccc(-c2cccs2)cc1NC(=O)c1ccc(CNC(=O)Oc2ccccc2)cc1 [Example 21, phenyl {[4-({[2-amino-5-(2-thienyl)phenyl]amino}carbonyl)phenyl]methyl}carbamate]
IC50 [2]: 77 nM
IC50 [1]: 640 nM

Nc1ccc(-c2cccs2)cc1NC(=O)c1ccc(CNC(=O)OCc2ccccc2)cc1 [Example 22, phenylmethyl {[4-({[2-amino-5-(2-thienyl)phenyl]amino}carbonyl)phenyl]methyl}carbamate]
IC50 [2]: 53 nM
IC50 [1]: 320 nM

CC(=O)NCc1ccc(C(=O)Nc2cc(-c3ccccc3)ccc2N)cc1 [Example 23, 4-[(acetylamino)methyl]-N-(4-aminobiphenyl-3-yl)benzamide]
IC50 [2]: 18 nM
IC50 [1]: 320 nM

CCC(=O)NCc1ccc(C(=O)Nc2cc(-c3ccccc3)ccc2N)cc1 [Example 24, N-(4-aminobiphenyl-3-yl)-4-[(propanoylamino)methyl]benzamide]
IC50 [2]: 17 nM
IC50 [1]: 120 nM

CCCC(=O)NCc1ccc(C(=O)Nc2cc(-c3ccccc3)ccc2N)cc1 [Example 25, N-(4-aminobiphenyl-3-yl)-4-[(butanoylamino)methyl]benzamide]
IC50 [2]: 17 nM
IC50 [1]: 220 nM

Nc1ccc(-c2ccccc2)cc1NC(=O)c1ccc(CNC(=O)C2CC2)cc1 [Example 26, N-(4-aminobiphenyl-3-yl)-4-{[(cyclopropylcarbonyl)amino]methyl}benzamide]
IC50 [2]: 15 nM
IC50 [1]: 170 nM

CC(C)C(=O)NCc1ccc(C(=O)Nc2cc(-c3ccccc3)ccc2N)cc1 [Example 27, N-(4-aminobiphenyl-3-yl)-4-{[(2-methylpropanoyl)amino]methyl}benzamide]
IC50 [2]: 10 nM
IC50 [1]: 150 nM

CC(C)(C)C(=O)NCc1ccc(C(=O)Nc2cc(-c3ccccc3)ccc2N)cc1 [Example 28, N-(4-aminobiphenyl-3-yl)-4-{[(2,2-dimethylpropanoyl)amino]methyl}benzamide]
IC50 [2]: 25 nM
IC50 [1]: 260 nM

CC(C)CC(=O)NCc1ccc(C(=O)Nc2cc(-c3ccccc3)ccc2N)cc1 [Example 29, N-(4-aminobiphenyl-3-yl)-4-{[(3-methylbutanoyl)amino]methyl}benzamide]
IC50 [2]: 14 nM
IC50 [1]: 210 nM

Nc1ccc(-c2ccccc2)cc1NC(=O)c1ccc(CNC(=O)C2CCC2)cc1 [Example 30, N-(4-aminobiphenyl-3-yl)-4-{[(cyclobutylcarbonyl)amino]methyl}benzamide]
IC50 [2]: 23 nM
IC50 [1]: 220 nM

Nc1ccc(-c2ccccc2)cc1NC(=O)c1ccc(CNC(=O)CCc2ccccc2)cc1 [Example 31, N-(4-aminobiphenyl-3-yl)-4-{[(3-phenylpropanoyl)amino]methyl}benzamide]
IC50 [2]: 14 nM
IC50 [1]: 420 nM

Nc1ccc(-c2ccccc2)cc1NC(=O)c1ccc(CNC(=O)C2CCCCC2)cc1 [Example 32, N-(4-aminobiphenyl-3-yl)-4-{[(cyclohexylcarbonyl)amino]methyl}benzamide]
IC50 [2]: 42 nM
IC50 [1]: 340 nM

Nc1ccc(-c2cccs2)cc1NC(=O)c1ccc(CNC(=O)C2CCCCC2)cc1 [Example 45, N-[2-amino-5-(2-thienyl)phenyl]-4-{[(cyclohexylcarbonyl)amino]methyl}benzamide]
IC50 [1]: 190 nM

CN1CCC(CNCc2ccc(C(=O)Nc3cc(-c4ccccc4)ccc3O)cc2)C1 (stereo not drawn) [Example 110]
IC50 [2]: 180 nM

O=C(Nc1cc(-c2ccccc2)ccc1O)c1ccc(CNCCn2cccn2)cc1 [Example 111, N-(4-hydroxy-3-biphenylyl)-4-({[2-(1H-pyrazol-1-yl)ethyl]amino}methyl)benzamide]
IC50 [2]: 33 nM

CN(Cc1ccc(C(=O)Nc2cc(-c3ccccc3)ccc2O)cc1)C1CCOC1 (stereo not drawn) [Example 112, N-(4-hydroxy-3-biphenylyl)-4-{[methyl(tetrahydro-3-furanyl)amino]methyl}benzamide]
IC50 [2]: 43 nM

CN(Cc1ccc(C(=O)Nc2cc(-c3ccccc3)ccc2O)cc1)Cc1cnccn1 [Example 113, N-(4-hydroxy-3-biphenylyl)-4-{[methyl(2-pyrazinylmethyl)amino]methyl}benzamide]
IC50 [2]: 31 nM

CN(Cc1ccc(C(=O)Nc2cc(-c3ccccc3)ccc2O)cc1)Cc1cnn(C)c1 [Example 114, N-(4-hydroxy-3-biphenylyl)-4-({methyl[(1-methyl-1H-pyrazol-4-yl)methyl]amino}methyl)benzamide]
IC50 [2]: 24 nM

CN1CCC(CN(C)Cc2ccc(C(=O)Nc3cc(-c4ccccc4)ccc3O)cc2)CC1 [Example 115, N-(4-hydroxy-3-biphenylyl)-4-({methyl[(1-methyl-4-piperidinyl)methyl]amino}methyl)benzamide]
IC50 [2]: 78 nM

O=C(Nc1cc(-c2ccccc2)ccc1O)c1ccc(CN2CCCC2c2ccccn2)cc1 (stereo not drawn) [Example 116, N-(4-hydroxy-3-biphenylyl)-4-{[2-(2-pyridinyl)-1-pyrrolidinyl]methyl}benzamide]
IC50 [2]: 280 nM

COc1cccc(CNCc2ccc(C(=O)Nc3cc(-c4ccccc4)ccc3O)cc2)c1 [Example 117, N-(4-hydroxy-3-biphenylyl)-4-{[(3-methoxybenzyl)amino]methyl}benzamide]
IC50 [2]: 4300 nM
